{"source": "patent US8268772B2", "about": "“Depot preparations” (Symrise AG, priority 2001, dated 2012)", "key": {"[1]": {"assay": "Release rate during hair coloring (GC content after mixing developer mass with ammoniacal dye solution)", "format": "physicochemical", "protocol": "To determine the hydrolysis rate the three depot preparations DP Example 8, DP Example 9 and DP Example 10 were added to the developer mass in a concentration of in each case 0.3%. The ammoniacal dye solution, which consists of 2 to 16% ammonia and/or substitutes such as, for example, alkanolamines, in particular monoethanolamine, water, thickeners, emulsifier, bodying agents, reactive dyes, solvents, flexing agents, stabilizers and preservatives, is then added to the developer mass in the ratio 1:1. Samples are then taken from the hair dye solution at defined time intervals, neutralized and extracted with solvent, and the content of depot preparation and released aldehyde is determined by means of gas chromatography using an internal and external standard."}, "[2]": {"assay": "Storage stability in soap formulation", "format": "physicochemical", "details": "stored in the dark about one month at room temperature", "excerpt": "(§1) (Amount after storage/Amount before storage)*100%=Storage stability [%]\nThe separate samples are then divided into portions.\nThe soap formulations A to F were stored in the dark for about one-month at room temperature."}, "[3]": {"assay": "Storage stability in powder laundry detergent", "details": "after one month storage", "text": "The storage stability of a fragrance or of a depot preparation is defined by the percentage of substance still present after storage. (Amount after storage/Amount before storage)*100%=Storage stability [%]\nFor the determination and for the comparison of the storage stability the depot preparation (DP) consisting of one or more acylals and the corresponding aldehydes (AL) are incorporated into separate samples. (SDP and SAL) of the same formulation of a consumer product, such as, for example, laundry detergent, shampoo or soap. The separate samples are then divided into portions. One portion of the sample SDP and SAL is subjected immediately to a suitable extraction and analytical measurement in order to determine the amount of depot preparation or aldehyde prior to storage. In the analytical investigation by, for example, gas chromatography, a suitable standard is used for quantification. The second portion is subjected to storage at elevated temperature for a defined period and then extracted and quantified using the same methods.\nThe laundry detergents A and B were used for washing or examined analytically both directly and after storage for four weeks."}, "[4]": {"assay": "Storage stability in hair colorant developer mass", "format": "physicochemical", "protocol": "as §1\nThe formulation of the developer mass typically comprises water, hydrogen peroxide, acids, such as, for example, phosphoric acid, citric acid etc., thickeners, emulsifiers, preservatives, solvents and further auxiliaries. 1% of DP Example 5 is added to the formulation of the developer mass.\nThe developer formulation, which comprises 1% of DP Example 5, is stored for one and a half months at room temperature."}, "[5]": {"details": "1 min after mixing developer mass (0.3% each DP) 1:1 with ammoniacal dye solution"}, "[6]": {"details": "5 min after mixing developer mass (0.3% each DP) 1:1 with ammoniacal dye solution"}, "[7]": {"details": "10 min after mixing developer mass (0.3% each DP) 1:1 with ammoniacal dye solution"}, "[8]": {"details": "20 min after mixing developer mass (0.3% each DP) 1:1 with ammoniacal dye solution"}, "[9]": {"details": "30 min after mixing developer mass (0.3% each DP) 1:1 with ammoniacal dye solution"}}, "data": [{"compound": "CCCCCCCCCC(C)C=O", "note": "(stereo not shown) [2-Methylundecanal, reference compound]", "values": [{"measurement": "Relative GC content [%]", "setting": "[1]; [5]", "result": 2.8, "unit": "%"}, {"measurement": "Relative GC content [%]", "setting": "[1]; [6]", "result": 32.8, "unit": "%"}, {"measurement": "Relative GC content [%]", "setting": "[1]; [7]", "result": 47.1, "unit": "%"}, {"measurement": "Relative GC content [%]", "setting": "[1]; [8]", "result": 20.7, "unit": "%"}, {"measurement": "Relative GC content [%]", "setting": "[1]; [9]", "result": 16.4, "unit": "%"}]}, {"compound": "CCCCCCC=O", "note": "[Aldehyde C7, heptanal, reference compound]", "values": [{"measurement": "Relative GC content [%]", "setting": "[1]; [5]", "result": 1.4, "unit": "%"}, {"measurement": "Relative GC content [%]", "setting": "[1]; [6]", "result": 17.1, "unit": "%"}, {"measurement": "Relative GC content [%]", "setting": "[1]; [7]", "result": 19.3, "unit": "%"}, {"measurement": "Relative GC content [%]", "setting": "[1]; [8]", "result": 12.2, "unit": "%"}, {"measurement": "Relative GC content [%]", "setting": "[1]; [9]", "result": 11.4, "unit": "%"}]}, {"compound": "CCCCCCCCCC=O", "note": "[Aldehyde C10, Decanal, reference compound]", "values": [{"measurement": "Storage stability [%]", "setting": "[2]", "result": 32, "unit": "%"}]}, {"compound": "O=Cc1ccccc1", "note": "[Benzaldehyde, reference compound]", "values": [{"measurement": "Storage stability [%]", "setting": "[2]", "result": 45, "unit": "%"}]}, {"compound": "CC(C)(C)c1ccc(CCC=O)cc1", "note": "[Bourgeonal, 4-tert-Butyldihydrocinnamaldehyde, reference compound]", "values": [{"measurement": "Storage stability [%]", "setting": "[2]", "result": 27, "unit": "%"}]}, {"compound": "CCCC(=O)OC(OC(=O)CCC)C1CC=C(CCC=C(C)C)CC1", "note": "(stereo not shown) [DP Example 3, (Butyryloxy) [4-(4-methyl-3-pentenyl)-3-cyclohexen-1-yl]methyl butyrate]", "values": [{"measurement": "Storage stability", "setting": "[3]", "result": 93, "unit": "%"}]}, {"compound": "CCCC(=O)OC(OC(=O)CCC)c1ccccc1", "note": "[DP Example 5, (Butyryloxy)(phenyl)methyl butyrate]", "values": [{"measurement": "Storage stability [%]", "setting": "[2]", "result": 93, "unit": "%"}, {"measurement": "Stability [%] 0 days", "setting": "[4]; 1% in developer mass, room temperature, 0 days", "result": 100, "unit": "%"}, {"measurement": "Stability [%] 13 days", "setting": "[4]; 1% in developer mass, room temperature, 13 days", "result": 100, "unit": "%"}, {"measurement": "Stability [%] 28 days", "setting": "[4]; 1% in developer mass, room temperature, 28 days", "result": 98, "unit": "%"}, {"measurement": "Stability [%] 42 days", "setting": "[4]; 1% in developer mass, room temperature, 42 days", "result": 100, "unit": "%"}, {"measurement": "color, odor and analytical stability", "setting": "[4]; developer mass, one and half months at room temperature", "result": "color, odor and analytically stable"}]}, {"compound": "CCCC(=O)OC(CCc1ccc(C(C)(C)C)cc1)OC(=O)CCC", "note": "[DP Example 6, 3-(4-tert-Butylphenyl)-1-(butyryloxy)propyl butyrate]", "values": [{"measurement": "Storage stability [%]", "setting": "[2]", "result": 93, "unit": "%"}]}, {"compound": "CCCCCCCCCC(OC(=O)CCCCCC)OC(=O)CCCCCC", "note": "[DP Example 7, 1-(Heptanoyloxy)decyl heptanoate]", "values": [{"measurement": "Storage stability [%]", "setting": "[2]", "result": 95, "unit": "%"}]}, {"compound": "CCCCCCC(OC(C)=O)OC(C)=O", "note": "[DP Example 8, 1-(Acetyloxy)heptyl acetate]", "values": [{"measurement": "Relative GC content [%]", "setting": "[1]; [5]", "result": 22.9, "unit": "%"}, {"measurement": "Relative GC content [%]", "setting": "[1]; [6]", "result": 0.0, "unit": "%"}, {"measurement": "Relative GC content [%]", "setting": "[1]; [7]", "result": 0.0, "unit": "%"}, {"measurement": "Relative GC content [%]", "setting": "[1]; [8]", "result": 0.0, "unit": "%"}, {"measurement": "Relative GC content [%]", "setting": "[1]; [9]", "result": 0.0, "unit": "%"}]}, {"compound": "CC(=O)OC(OC(C)=O)C1CCC(C)=CC1C", "note": "(stereo not shown) [DP Example 9, (Acetyloxy)(2,4-dimethyl-3-cyclohexen-1-yl)methyl acetate]", "values": [{"measurement": "Relative GC content [%]", "setting": "[1]; [5]", "result": 28.9, "unit": "%"}, {"measurement": "Relative GC content [%]", "setting": "[1]; [6]", "result": 2.5, "unit": "%"}, {"measurement": "Relative GC content [%]", "setting": "[1]; [7]", "result": 0.5, "unit": "%"}, {"measurement": "Relative GC content [%]", "setting": "[1]; [8]", "result": 0.0, "unit": "%"}, {"measurement": "Relative GC content [%]", "setting": "[1]; [9]", "result": 0.0, "unit": "%"}]}, {"compound": "CCCCCCCCCC(C)C(OC(C)=O)OC(C)=O", "note": "(stereo not shown) [DP Example 10, 1-(Acetyloxy)-2-methylundecyl acetate]", "values": [{"measurement": "Relative GC content [%]", "setting": "[1]; [5]", "result": 48.2, "unit": "%"}, {"measurement": "Relative GC content [%]", "setting": "[1]; [6]", "result": 5.1, "unit": "%"}, {"measurement": "Relative GC content [%]", "setting": "[1]; [7]", "result": 2.0, "unit": "%"}, {"measurement": "Relative GC content [%]", "setting": "[1]; [8]", "result": 0.0, "unit": "%"}, {"measurement": "Relative GC content [%]", "setting": "[1]; [9]", "result": 0.0, "unit": "%"}]}, {"compound": "CC1=CC(C)C(C=O)CC1", "note": "(stereo not shown) [Vertocitral, reference compound]", "values": [{"measurement": "Relative GC content [%]", "setting": "[1]; [5]", "result": 2.1, "unit": "%"}, {"measurement": "Relative GC content [%]", "setting": "[1]; [6]", "result": 33.6, "unit": "%"}, {"measurement": "Relative GC content [%]", "setting": "[1]; [7]", "result": 33.6, "unit": "%"}, {"measurement": "Relative GC content [%]", "setting": "[1]; [8]", "result": 19.3, "unit": "%"}, {"measurement": "Relative GC content [%]", "setting": "[1]; [9]", "result": 15.7, "unit": "%"}]}, {"compound": "CC(C)=CCCC1=CCC(C=O)CC1", "note": "(stereo not shown) [Vertomugal, 1-Formyl-4-(4-methyl-3-pentenyl)-3-cyclohexene, reference compound]", "values": [{"measurement": "Storage stability", "setting": "[3]", "result": 34, "unit": "%"}]}]}
